Data reported in US12138322B2, “Method of preventing the development of melanoma” (Vector Vitale IP LLC, priority 2019, dated 2024).
Where “and” joins values, the source holds several entries; their conditions need not be identical. Equal entries are not always repeated. Entries after “also recorded” stand apart in the source; their conditions may differ. Marks after values point to notes of the source that are not given here.

System: B16 melanoma
Experiment: B16 melanoma tumor growth and survival in mice, intratumoral administration
Type: in vivo, C57Bl/J6 mice
Design: key to presence or absence of tumor, individual animals: Tumor−: absence of tumor growth; Tumor+: presence of tumor; key to tumor volume, individual animals: tumor volume in mm^3, ellipsoid V = 4/3×π×a×b×c from radii
Conditions: for size of melanoma reduced compared to control: drug administered on the 11th day after inoculation; for tumor volume, individual animals: group 2, individual regimens
Protocol: B16 melanoma cells having the following characteristic were used in the experiment: • Origin: Mus musculus skin (C57BL/6 mouse) • Characteristics of tumor growth: short incubation period, rapid growth, absence of spontaneous metastases. • Tumor inoculability is 100%. The minimum dose of cells that causes tumor growth for this melanoma is only 100 to 1000 per subcutaneous injection in the mouse.
15 female C57Bl/J6 mice (5 mice per group) at the age of 10-12 weeks, weighing 18-22 g were used in the experiment.
B16 melanoma cells were cultured in vitro under standard conditions. For transplantation, tumor cells in the exponential phase were removed from the substrate with 0.02% Versene solution and the suspension cellularity and viability was evaluated in the presence of trypan blue in a hemocytometer and the suspension was adjusted to a concentration of 10^7 cells/ml by dilution with saline solution. Melanoma cells were injected intracutaneously (i.e.) in 0.05 ml of the suspension (0.5×10^6 cells/mouse) into the animal's back region. 24 hours before the injection of tumor cells, the wool cover on the back of each mouse was removed with depilation cream.
Grouping. The animals were divided into groups as follows: • Group No. 1: control group, mice injected i.e. with B16 melanoma cells; • Group No. 2: mice injected i.e. with B16 melanoma cells+intratumoral injections of ^64Zne(Asp)2 at day 5 after the tumor cells were inoculated. • Group No. 3: mice injected i.e. with B16 melanoma cells+intratumoral injections of ^64Zne(Asp)2 at day 11 after the tumor cells were inoculated
The composition to be administered was prepared immediately prior to its administration. ^64Zne(Asp)2 was dissolved in deuterium-depleted water with addition of 1% DMSO. Animals in group No. 2 were injected with the composition comprising ^64Zne(Asp)2 intratumorally and around the area of tumor growth at a dose of 200 μg/mouse in a volume of 20 μl/mouse after the tumor reached 0.5 cm in diameter (at day 5 after i.e. administration of the tumor cells).
Animals in group No. 3 were injected with the composition comprising ^64Zne(Asp)2 intratumorally and around the area of tumor growth at a dose of 300 μg/mouse in a volume of 30 μl/mouse at day 11 after i.e. administration of the tumor cells. […] 24 hours after the first injection and then a series of injections were given every other day. ^64Zne(Asp)2 was administered intratumorally every other day for 10 days, 5 times in total.
Regarding the 3rd group: group 3 mice received 300 mcg/mouse of ^64Zne in the form of ^4Zne aspartate on the 11th day and 200 mcg/mouse of ^4Zne aspartate on the 13th, 15th, 17th and 19th days after tumor cell injection.
The anti-tumor efficacy of ^64Zne(Asp)2 was evaluated on the basis of the growth dynamics of melanoma tumors estimated based on the changes in tumor volume according to generally accepted rules.
From the time the experimental tumors reached 0.3-0.5 cm in diameter and every 2-3 days thereafter, the size of each tumor node in experimental animals was measured in three orthogonal planes (width×length×height (W×L×H)) and the tumor volume was calculated by use of the following formula for the volume of ellipsoid: V= 4/3×πabc; where V is the tumor volume (mm^3); a, b, c is the rumor radius (mm): a is the radius along the x axis, b is the radius along the y axis, c is the radius along the z axis.

N[C@@H](CC(=O)[O-])C(=O)[O-].[Zn+2] [^64Zne(Asp)2, Zinc L-aspartate]
size of melanoma reduced compared to control (21st day): 85%
size of melanoma reduced compared to control (24th day): 75.6%
tumor volume, individual animals (4 day after tumor cell inoculation (before 1st injection)): 14.1 and 33.5 and 24.4 (2×) and 25
tumor volume, individual animals (6 day): 14.1 (3×) and 33.5 and 65.4
tumor volume, individual animals (10 day): 24.4 (2×) and 14 (2×) and 51
tumor volume, individual animals (12 day): 24.4 and 14 (3×) and 116.4
local finding at tumor site, individual animal (13 day, group 2): Eschar
presence or absence of tumor, individual animals (13 day, group 2): Tumor +/
tumor volume, individual animals (14 day): 14 (2×) and 4.2 and 38.4 and 9.2
tumor volume, individual animals (17 day): 4.2 (3×) and 65.4 and 14
presence or absence of tumor, individual animals (18 day, group 2): Tumor +/
tumor volume, individual animals (21 day): 0 (3×) and 179.6 and 33.5
presence or absence of tumor, individual animals (22 day, group 2): Tumor +/
tumor volume, individual animals (24 day): 25.4 and 0 (2×) and 282.7 and 33.5
Tumor necrosis, individual animal (25 day, group 2): necrosis
presence or absence of tumor, individual animals (25 day, group 2): Tumor +/
death of individual animal (28 day, group 2): Died*
presence or absence of tumor, individual animals (28 day, group 2): Tumor−; also recorded: Tumor +/
tumor volume, individual animals (28 day): 33.2 and 0 (2×) and 641 and 102.6
presence or absence of tumor, individual animals (36 day, group 2): Tumor +/; also recorded: Tumor−
Tumor necrosis, individual animal (39 day, group 2): necrosis
presence or absence of tumor, individual animals (39 day, group 2): Tumor+; also recorded: Tumor−; also recorded: Tumor +/
death of individual animal (43 day, group 2): Died*
presence or absence of tumor, individual animals (43 day, group 2): Tumor+; also recorded: Tumor−
presence or absence of tumor, individual animals (55 day, group 2): Tumor−
Tumor necrosis, individual animal (58 day, group 2): necrosis
presence or absence of tumor, individual animals (58 day, group 2): Tumor +/; also recorded: Tumor−
death of individual animal (61 day, group 2): Died*
presence or absence of tumor, individual animals (61 day, group 2): Tumor−
Tumor volume (M ± m) (day 4 after inoculation (before first injection), group 2: intratumoral 200 μg/mouse at day 5): 24.3 mm^3
Tumor volume (M ± m) (day 4 after inoculation (before first injection), group 3: intratumoral 300 μg/mouse at day 11, then 200 μg/mouse): 27 mm^3
Number of alive mice (day 4 after inoculation, group 2: intratumoral at day 5, 5 animals per group): 100%
Number of alive mice (day 4 after inoculation, group 3: intratumoral at day 11, 5 animals per group): 100%
Number of alive mice (day 6, group 2: intratumoral at day 5): 100%
Number of alive mice (day 6, group 3: intratumoral at day 11): 100%
Tumor volume (M ± m) (day 6 after inoculation (before first injection), group 3: intratumoral 300 μg/mouse at day 11, then 200 μg/mouse): 63 mm^3
Tumor volume (M ± m) (day 6 after inoculation, group 2: intratumoral 200 μg/mouse at day 5): 28.2 mm^3
Number of alive mice (day 9, group 2: intratumoral at day 5): 100%
Number of alive mice (day 9, group 3: intratumoral at day 11): 100%
Tumor volume (M ± m) (day 9 after inoculation (before first injection), group 3: intratumoral 300 μg/mouse at day 11, then 200 μg/mouse): 119 mm^3
Tumor volume (M ± m) (day 9 after inoculation, group 2: intratumoral 200 μg/mouse at day 5): 25.6 mm^3
Number of alive mice (day 12, group 2: intratumoral at day 5): 100%
Number of alive mice (day 12, group 3: intratumoral at day 11): 80^+ %
Tumor volume (M ± m) (day 12 after inoculation, group 2: intratumoral 200 μg/mouse at day 5): 36.6 mm^3
Tumor volume (M ± m) (day 12 after inoculation, group 3: intratumoral 300 μg/mouse at day 11, then 200 μg/mouse): 260 ± 20 mm^3
Number of alive mice (day 14, group 2: intratumoral at day 5): 100%
Number of alive mice (day 14, group 3: intratumoral at day 11): 80%
Tumor volume (M ± m) (day 14 after inoculation, group 2: intratumoral 200 μg/mouse at day 5): 16 ± 6^d mm^3
Tumor volume (M ± m) (day 14 after inoculation, group 3: intratumoral 300 μg/mouse at day 11, then 200 μg/mouse): 184 ± 51 mm^3
Number of alive mice (day 17, group 2: intratumoral at day 5): 100%
Number of alive mice (day 17, group 3: intratumoral at day 11): 80%
Tumor volume (M ± m) (day 17 after inoculation, group 2: intratumoral 200 μg/mouse at day 5): 18.4 mm^3
Tumor volume (M ± m) (day 17 after inoculation, group 3: intratumoral 300 μg/mouse at day 11, then 200 μg/mouse): 250 mm^3
Number of alive mice (day 21, group 2: intratumoral at day 5): 100%
Number of alive mice (day 21, group 3: intratumoral at day 11): 80%
Tumor volume (M ± m) (day 21 after inoculation, group 2: intratumoral 200 μg/mouse at day 5): 42.6 mm^3
Tumor volume (M ± m) (day 21 after inoculation, group 3: intratumoral 300 μg/mouse at day 11, then 200 μg/mouse): 375.4 mm^3
Number of alive mice (day 24, group 2: intratumoral at day 5): 100%
Number of alive mice (day 24, group 3: intratumoral at day 11): 60* %
Tumor volume (M ± m) (day 24 after inoculation, group 2: intratumoral 200 μg/mouse at day 5): 68.3 mm^3
Tumor volume (M ± m) (day 24 after inoculation, group 3: intratumoral 300 μg/mouse at day 11, then 200 μg/mouse): 881 mm^3
Number of alive mice (day 27, group 2: intratumoral at day 5): 100%
Number of alive mice (day 27, group 3: intratumoral at day 11): 60%
Tumor volume (M ± m) (day 27 after inoculation, group 2: intratumoral 200 μg/mouse at day 5): 155.4 mm^3
Tumor volume (M ± m) (day 27 after inoculation, group 3: intratumoral 300 μg/mouse at day 11, then 200 μg/mouse): 2313.5 mm^3
Number of alive mice (day 28, group 2: intratumoral at day 5): 80* %
Number of alive mice (day 28, group 3: intratumoral at day 11): 40%
Number of alive mice (day 31, group 2: intratumoral at day 5): 80%
Number of alive mice (day 31, group 3: intratumoral at day 11): 40%
animals in which growth of melanoma was suppressed by 100% (group No. 2, after a single intratumoral injection at day 5): 2 out of 5
tumor volume as % of the corresponding figure in the control group (intratumoral on the 5th day after inoculation, day of reading not given): 4%
